Results: the supplement of paper PMC10331698
± gives the standard deviation of the averaged measurements.

Legend:
Assay in all cases: level (log10 ratio to DMSO vehicle control); higher = higher biomarker level / cell amount than vehicle control
Conditions in all cases: in DMSO
Perfluoro-1-iodohexane = compound: FC(F)(F)C(F)(F)C(F)(F)C(F)(F)C(F)(F)C(F)(F)I [Perfluoro-1-iodohexane]
Description: (§1)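 BioMAP Diversity Plus panel of 12 human primary cell co-culture systems (3C, 4H, LPS, SAg, BT, BF4T, BE3C, CASM3C, HDF3CGF, KF3CT, MyoF, Mphg). Compounds were added 1 h before stimulation and left for 24 h (MyoF 48 h; BT 72 h for soluble read-outs or 6 d for IgG). Biomarkers were read by ELISA, cytotoxicity by SRB, PBMC viability and proliferation by Alamar Blue. Each well value was divided by the mean of 8 DMSO control wells on the same plate and log10 transformed; duplicate blinded samples were tested at 4 concentrations.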

[1] = compound: O=C(O)C(F)(F)C(F)(F)OC(F)(F)F [Perfluoro-3-methoxypropanoic acid]
Description: as §1

[2] = compound: C=CC(=O)OCC(F)(F)C(F)(F)C(F)(F)C(F)(F)C(F)(F)C(F)(F)C(F)(F)F [1H,1H-Perfluorooctyl acrylate]
Description: as §1

Perfluorodecanoic acid = compound: O=C(O)C(F)(F)C(F)(F)C(F)(F)C(F)(F)C(F)(F)C(F)(F)C(F)(F)C(F)(F)C(F)(F)F [Perfluorodecanoic acid]
Description: as §1

[3] = compound: O=C(O)C(F)(F)C(F)(F)C(F)(F)OC(F)(C(F)(F)F)C(F)(F)F [Perfluoro-4-isopropoxybutanoic acid]
Description: as §1

[4] = compound: O=S(=O)(O)C(F)(F)C(F)(F)C(F)(F)C(F)(F)C(F)(F)C(F)(F)F [Perfluorohexanesulfonic acid]
Description: as §1

[5] = compound: FC(F)(F)C(F)(F)C(F)(F)C(F)(F)C(F)(F)C(F)(F)C(F)(F)C(F)(F)CCS [2-(Perfluorooctyl)ethanthiol]
Description: as §1

| Test System | level (log10) (Perfluoro-1-iodohexane; 6700 nM) | level (log10) (Perfluoro-1-iodohexane; 20000 nM) | level (log10) (Perfluoro-1-iodohexane; 60000 nM) | level (log10) ([1]; 6700 nM) | level (log10) ([1]; 20000 nM) | level (log10) ([1]; 60000 nM) | level (log10) ([2]; 6700 nM) | level (log10) ([2]; 20000 nM) | level (log10) ([2]; 60000 nM) | level (log10) (Perfluorodecanoic acid; 6700 nM) | level (log10) (Perfluorodecanoic acid; 20000 nM) | level (log10) ([3]; 6700 nM) | level (log10) ([3]; 20000 nM) | level (log10) ([3]; 60000 nM) | level (log10) ([4]; 6700 nM) | level (log10) ([4]; 20000 nM) | level (log10) ([4]; 60000 nM) | level (log10) ([5]; 6700 nM) | level (log10) ([5]; 20000 nM) |
| --- | --- | --- | --- | --- | --- | --- | --- | --- | --- | --- | --- | --- | --- | --- | --- | --- | --- | --- | --- |
| HDF3CGF:TIMP-1 | -0.014 ± 0.021 | -0.017 ± 0.025 | -0.0385 ± 0.016 | -0.0285 ± 0.026 | 0.0185 ± 0.005 | 0.036 ± 0.071 | -0.026 ± 0.05 | -0.029 ± 0.0057 | -0.015 ± 0.038 | 0.016 ± 0.037 | -0.0995 ± 0.03 | -0.023 ± 0.048 | -0.0155 ± 0.043 | 0.018 ± 0.11 | 0.0145 ± 0.016 | 0.049 ± 0.021 | 0.094 ± 0.038 | -0.017 ± 0.013 | -0.035 ± 0.0042 |
| HDF3CGF:TIMP-2 | 0.017 ± 0.038 | 0.0295 ± 0.018 | 0.031 ± 0.045 | -0.029 ± 0.047 | 0.001 ± 0.0099 | -0.01 ± 0.023 | 0.0145 ± 0.016 | -0.023 ± 0.011 | -0.041 ± 0.0028 | -0.006 ± 0.028 | -0.349 ± 0.17 | -0.008 ± 0.017 | 0.0335 ± 0.022 | -0.004 ± 0.023 | -0.0055 ± 0.015 | 0.0095 ± 0.0035 | -0.02 ± 0.0099 | -0.0305 ± 0.073 | -0.0265 ± 0.069 |
| KF3CT:CCL2/MCP-1 | 0.0225 ± 0.032 | -0.015 ± 0.0014 | -0.0185 ± 0.047 | 0.0035 ± 0.011 | -0.0165 ± 0.0092 | -0.011 ± 0.013 | -0.0195 ± 0.022 | -0.0195 ± 0.0021 | -0.016 ± 0.011 | -0.127 ± 0.023 | -0.321 ± 0.032 | 0.0235 ± 0.039 | 0.032 ± 0.018 | 0.023 ± 0.052 | 0.0075 ± 0.032 | -0.001 ± 0.013 | 0.0205 ± 0.023 | -0.0125 ± 0.011 | -0.0285 ± 0.0092 |
| KF3CT:CD54/ICAM-1 | 0.001 ± 0.0085 | 0.008 ± 0.021 | 0 ± 0.011 | 0.019 ± 0.0085 | 0.009 ± 0.018 | 0.009 ± 0.0071 | -0.005 ± 0.016 | -0.0075 ± 0.005 | -0.0045 ± 0.0092 | 0.0095 ± 0.013 | -0.003 ± 0.0028 | 0.001 ± 0.016 | -0.035 ± 0.0071 | -0.0495 ± 0.016 | -0.0165 ± 0.005 | -0.0165 ± 0.0078 | -0.013 ± 0.014 | -0.001 ± 0.034 | -0.002 ± 0.0085 |
| KF3CT:CXCL8/IL-8 | -0.0125 ± 0.016 | 0.003 ± 0.0014 | 0 ± 0.011 | 0.007 ± 0.016 | 0.028 ± 0.031 | 0.017 ± 0.02 | -0.0205 ± 0.021 | -0.0005 ± 0.019 | 0.0405 ± 0.0021 | -0.0225 ± 0.011 | -0.0035 ± 0.018 | 0.0175 ± 0.018 | 0.0335 ± 0.005 | 0.043 ± 0.071 | 0.015 ± 0.02 | 0.03 ± 0.0057 | 0.038 ± 0.0057 | -0.026 ± 0.034 | -0.028 ± 0.037 |
| KF3CT:CXCL9/MIG | -0.002 | -0.0125 ± 0.00071 | 0.0025 ± 0.012 | 0.0125 ± 0.0064 | 0.008 ± 0.0099 | 0.021 ± 0.0014 | 0.005 ± 0.0042 | -0.0035 ± 0.0035 | 0.008 ± 0.0099 | 0.0065 ± 0.0078 | -0.0185 ± 0.0035 | 0.0025 ± 0.011 | 0.0105 ± 0.00071 | 0.0155 ± 0.023 | 0.001 ± 0.021 | 0.002 ± 0.0071 | 0.013 ± 0.013 | 0.016 ± 0.018 | 0.014 ± 0.0042 |
| KF3CT:CXCL10/IP-10 | 0.005 ± 0.0014 | 0.001 ± 0.0028 | 0.0065 ± 0.0092 | 0.011 ± 0.023 | 0.027 ± 0.034 | 0.03 ± 0.016 | 0.0055 ± 0.0035 | 0 ± 0.0071 | -0.003 ± 0.014 | -0.044 ± 0.017 | -0.134 ± 0.028 | 0.019 ± 0.034 | 0.017 ± 0.023 | 0.0235 ± 0.043 | -0.006 | -0.016 ± 0.0028 | -0.022 ± 0.016 | -0.025 ± 0.0042 | -0.01 ± 0.0057 |
| KF3CT:IL-1alpha | 0.008 ± 0.017 | 0.005 ± 0.017 | -0.014 ± 0.017 | 0.0455 ± 0.005 | 0.01 ± 0.0042 | 0.0225 ± 0.00071 | -0.0075 ± 0.022 | -0.001 ± 0.0071 | -0.007 ± 0.0028 | -0.0535 ± 0.0035 | -0.068 ± 0.0042 | 0.0225 ± 0.019 | 0.0165 ± 0.0035 | 0.014 ± 0.025 | 0.0065 ± 0.054 | -0.014 ± 0.016 | -0.015 ± 0.017 | -0.0065 ± 0.026 | -0.009 ± 0.0042 |
| KF3CT:MMP-9 | -0.0225 ± 0.0064 | -0.0225 ± 0.0092 | -0.044 ± 0.0099 | -0.002 ± 0.0085 | 0.001 ± 0.0071 | 0.01 ± 0.014 | -0.0245 ± 0.00071 | -0.0225 ± 0.019 | -0.014 ± 0.014 | -0.103 ± 0.037 | -0.308 ± 0.0028 | 0.0055 ± 0.0035 | 0.022 ± 0.02 | 0.078 ± 0.014 | 0.0095 ± 0.0064 | 0.028 ± 0.0014 | 0.027 ± 0.0057 | -0.029 ± 0.035 | -0.0275 ± 0.037 |
| KF3CT:PAI-I | 0.001 ± 0.0014 | -0.0005 ± 0.005 | 0.0055 ± 0.005 | -0.0035 ± 0.0021 | -0.0045 ± 0.0035 | -0.0195 ± 0.026 | -0.0075 ± 0.00071 | -0.01 ± 0.013 | -0.0135 ± 0.018 | -0.0365 ± 0.023 | -0.144 ± 0.042 | -0.019 ± 0.0028 | -0.0265 ± 0.015 | -0.0125 ± 0.018 | -0.0105 ± 0.012 | -0.0325 ± 0.00071 | -0.0435 ± 0.0021 | -0.04 | -0.0425 ± 0.023 |
| KF3CT:SRB | -0.0075 ± 0.00071 | -0.0065 ± 0.00071 | 0 ± 0.011 | -0.0145 ± 0.0035 | -0.009 ± 0.0014 | -0.002 ± 0.013 | -0.007 ± 0.0014 | -0.0055 ± 0.00071 | -0.002 ± 0.0071 | -0.0325 ± 0.005 | -0.036 ± 0.0085 | -0.009 ± 0.0071 | -0.013 ± 0.0028 | -0.007 ± 0.0071 | -0.0015 ± 0.0021 | -0.0095 ± 0.005 | 0.0005 ± 0.023 | -0.0015 ± 0.0021 | 0.002 ± 0.0042 |
| KF3CT:TIMP-2 | 0.0015 ± 0.013 | 0.0135 ± 0.019 | 0.0035 ± 0.011 | -0.0045 ± 0.025 | 0.0075 ± 0.035 | 0.004 ± 0.016 | -0.0075 ± 0.00071 | -0.0155 ± 0.018 | -0.0075 ± 0.032 | 0.003 ± 0.03 | -0.051 ± 0.034 | -0.0105 ± 0.011 | -0.005 ± 0.013 | 0.004 ± 0.021 | 0.0005 ± 0.0064 | 0.012 ± 0.0042 | 0.019 ± 0.013 | -0.025 ± 0.02 | -0.021 ± 0.02 |
| KF3CT:uPA | 0.013 ± 0.0042 | 0.006 ± 0.023 | 0.007 ± 0.017 | 0 ± 0.018 | -0.0055 ± 0.012 | 0.002 ± 0.0085 | 0.01 ± 0.0014 | -0.004 ± 0.013 | 0.0135 ± 0.023 | -0.0095 ± 0.013 | 0 ± 0.023 | -0.002 ± 0.0028 | 0.0105 ± 0.0035 | 0.016 ± 0.0014 | -0.0135 ± 0.015 | -0.0105 ± 0.015 | -0.002 ± 0.0014 | 0.006 ± 0.013 | 0.001 ± 0.016 |
| MyoF:CD106/VCAM-1 | -0.031 ± 0.016 | -0.102 ± 0.064 | -0.337 ± 0.03 | -0.014 ± 0.0042 | 0.0035 ± 0.013 | 0.001 | -0.011 ± 0.0042 | -0.0095 ± 0.0035 | -0.024 ± 0.0042 | -0.019 ± 0.0071 | -0.084 ± 0.02 | -0.023 ± 0.017 | 0.0095 ± 0.0035 | -0.001 | 0.005 ± 0.018 | 0.003 ± 0.0042 | -0.0145 ± 0.023 | 0.0155 ± 0.00071 | -0.0735 ± 0.083 |
